Marks after values point to notes of the source that are not given here.
Experiments:
Solubility = format: physicochemical
Source text: A53868 factor A is soluble in water and dimethyl sulfoxide and is insoluble in most organic solvents.
Soluhility: soluble in water and dimethyl sulfoxide; insoluble in most organic solvents

L. monocytogenes EDG = assay: Standard agar-diffusion test, antibacterial; format: cell-based
Source text: Compound 1 was negative in the Limulus Lysate Test for endotoxin and was devoid of intrinsic in vitro antibacterial activity against L. monocytogenes EDG in a standard agar-diffusion test.

[1] = system: Listeria monocytogenes EGD; assay: Protection of mice by pretreatment against lethal Listeria monocytogenes infection; format: in vivo, CD1 mice; conditions: for Average Survival Time: survivors at 14 days given 15 day survival time;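 as to Percent Survivors: survivors counted daily for 14 days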
Experimental: In the test CD1 mice weighing 18-20 g were pretreated parenterally with the test compound 5, 3, and 1 days before intravenous infection in the lateral tail vein with 0.1 ml containing 5 x 10^5 viable cells of Listeria monocytogenes EGD. Test compound was solubilized in pyrogen-free water and administered intraperitoneally in 0.25 ml of the solution. Ten mice each were used for each concentration tested. Ten control mice were treated intraperitoneally at 5, 3, and 1-days preinfection with 0.25 ml of pyrogen-free water. The mice were caged, watered, and fed daily. […] All surviving animals at 14 days were given an arbitrary 15 day survival time. The average survival time was calculated for each group. Significant differences between the treated and control groups of mice were determined by the standard "T" test.

C. albicans A26 = assay: Standard agar-diffusion test, antifungal; format: cell-based
Experimental: (§1) In this test CD1 mice weighing 18-20 g were pretreated intraperitoneally or subcutaneously with test compound at 5, 3, and 1 days before intravenous infection with 5 x 10^6 viable cells of Candida albicans A26. Test compound was solubilized in pyrogen-free water and administered in 0.25 ml of solution. Ten mice were used for each concentration tested. Ten infected mice were treated intraperitoneally or subcutaneously at 5, 3, and 1 days preinfection with 0.25 ml of pyrogen-free water as controls. The immunomodulatory effects of the test compound were studied in X-irradiated mice exposed to 400R 24 hours preinfection, or mice treated intraperitoneally with 50 mg/kg cyclophosphamide 5, 3, and 1 days preinfection. The mice were caged, watered, and fed daily. The number of surviving mice was counted daily. Normal mice surviving 18 days post-infection were given an arbitrary 19-day survival time. X-irradiated or cyclophosphamide-treated mice surviving 12 days post-infection were given an arbitrary 13 day survival time. The average survival time was calculated for each group. Significant differences between treated and untreated groups of mice were determined by "T" test. Compound 1 was devoid of intrinsic in vitro antifungal activity against C. albicans A26 in a standard agar-diffusion test.

Candida albicans A26 = assay: Protection of mice by pretreatment against lethal Candida albicans infection; format: in vivo, CD1 mice
Experimental: as §1

[2] = Cyclophosphamide-Pretreated Mice, dose 25 mg/kg
[3] = Cyclophosphamide-Pretreated Mice, dose 50 mg/kg

C=C(CP(=O)(O)O)NC(=O)[C@H](CC(C)C)NC(=O)CN [Compound 1, N^2-glycyl-N-(1-methylene-2-phosphonoethyl)leucinamide]
solubility in most organic solvents (Solubility; most organic solvents): insoluble | solubility in water and dimethyl sulfoxide (Solubility; water and dimethyl sulfoxide): soluble | intrinsic in vitro antibacterial activity (L. monocytogenes EDG): devoid | Percent Survivors ([1]; pretreatment 6.25 mg/kg i.p., day 1 post infection): 100% | Percent Survivors ([1]; pretreatment 6.25 mg/kg i.p., day 2 post infection): 100% | Percent Survivors ([1]; pretreatment 6.25 mg/kg i.p., day 3 post infection): 100% | Percent Survivors ([1]; pretreatment 6.25 mg/kg i.p., day 4 post infection): 60% | Percent Survivors ([1]; pretreatment 6.25 mg/kg i.p., day 5 post infection): 50% | Percent Survivors ([1]; pretreatment 6.25 mg/kg i.p., day 6 post infection): 40% | Percent Survivors ([1]; pretreatment 6.25 mg/kg i.p., day 7 post infection): 30% | Percent Survivors ([1]; pretreatment 6.25 mg/kg i.p., day 8 post infection): 30% | Percent Survivors ([1]; pretreatment 6.25 mg/kg i.p., day 9 post infection): 30% | Percent Survivors ([1]; pretreatment 6.25 mg/kg i.p., day 10 post infection): 30% | Percent Survivors ([1]; pretreatment 6.25 mg/kg i.p., day 11 post infection): 30% | Percent Survivors ([1]; pretreatment 6.25 mg/kg i.p., day 12 post infection): 30% | Percent Survivors ([1]; pretreatment 6.25 mg/kg i.p., day 13 post infection): 30% | Percent Survivors ([1]; pretreatment 6.25 mg/kg i.p., day 14 post infection): 30% | Average Survival Time ([1]; pretreatment 6.25 mg/kg i.p.): 7.9* Days | Percent Survivors ([1]; pretreatment 12.5 mg/kg i.p., day 1 post infection): 100% | Percent Survivors ([1]; pretreatment 12.5 mg/kg i.p., day 2 post infection): 100% | Percent Survivors ([1]; pretreatment 12.5 mg/kg i.p., day 3 post infection): 100% | Percent Survivors ([1]; pretreatment 12.5 mg/kg i.p., day 4 post infection): 80% | Percent Survivors ([1]; pretreatment 12.5 mg/kg i.p., day 5 post infection): 80% | Percent Survivors ([1]; pretreatment 12.5 mg/kg i.p., day 6 post infection): 70% | Percent Survivors ([1]; pretreatment 12.5 mg/kg i.p., day 7 post infection): 70% | Percent Survivors ([1]; pretreatment 12.5 mg/kg i.p., day 8 post infection): 70% | Percent Survivors ([1]; pretreatment 12.5 mg/kg i.p., day 9 post infection): 70% | Percent Survivors ([1]; pretreatment 12.5 mg/kg i.p., day 10 post infection): 70% | Percent Survivors ([1]; pretreatment 12.5 mg/kg i.p., day 11 post infection): 70% | Percent Survivors ([1]; pretreatment 12.5 mg/kg i.p., day 12 post infection): 70% | Percent Survivors ([1]; pretreatment 12.5 mg/kg i.p., day 13 post infection): 70% | Percent Survivors ([1]; pretreatment 12.5 mg/kg i.p., day 14 post infection): 70% | Percent Survivors ([1]; pretreatment 12.5 mg/kg i.p., day 15 post infection): 70% | Average Survival Time ([1]; pretreatment 12.5 mg/kg i.p.): 11.9* Days | Percent Survivors ([1]; pretreatment 25 mg/kg i.p., day 1 post infection): 100% | Percent Survivors ([1]; pretreatment 25 mg/kg i.p., day 2 post infection): 100% | Percent Survivors ([1]; pretreatment 25 mg/kg i.p., day 3 post infection): 90% | Percent Survivors ([1]; pretreatment 25 mg/kg i.p., day 4 post infection): 70% | Percent Survivors ([1]; pretreatment 25 mg/kg i.p., day 5 post infection): 40% | Percent Survivors ([1]; pretreatment 25 mg/kg i.p., day 6 post infection): 40% | Percent Survivors ([1]; pretreatment 25 mg/kg i.p., day 7 post infection): 40% | Percent Survivors ([1]; pretreatment 25 mg/kg i.p., day 8 post infection): 40% | Percent Survivors ([1]; pretreatment 25 mg/kg i.p., day 9 post infection): 40% | Percent Survivors ([1]; pretreatment 25 mg/kg i.p., day 10 post infection): 40% | Percent Survivors ([1]; pretreatment 25 mg/kg i.p., day 11 post infection): 40% | Percent Survivors ([1]; pretreatment 25 mg/kg i.p., day 12 post infection): 40% | Percent Survivors ([1]; pretreatment 25 mg/kg i.p., day 13 post infection): 40% | Percent Survivors ([1]; pretreatment 25 mg/kg i.p., day 14 post infection): 40% | Percent Survivors ([1]; pretreatment 25 mg/kg i.p., day 15 post infection): 40% | Average Survival Time ([1]; pretreatment 25 mg/kg i.p.): 8.6* Days | Percent Survivors ([1]; pretreatment 50 mg/kg i.p., day 1 post infection): 100% | Percent Survivors ([1]; pretreatment 50 mg/kg i.p., day 2 post infection): 100% | Percent Survivors ([1]; pretreatment 50 mg/kg i.p., day 3 post infection): 80% | Percent Survivors ([1]; pretreatment 50 mg/kg i.p., day 4 post infection): 70% | Percent Survivors ([1]; pretreatment 50 mg/kg i.p., day 5 post infection): 40% | Percent Survivors ([1]; pretreatment 50 mg/kg i.p., day 6 post infection): 30% | Percent Survivors ([1]; pretreatment 50 mg/kg i.p., day 7 post infection): 30% | Percent Survivors ([1]; pretreatment 50 mg/kg i.p., day 8 post infection): 30% | Percent Survivors ([1]; pretreatment 50 mg/kg i.p., day 9 post infection): 30% | Percent Survivors ([1]; pretreatment 50 mg/kg i.p., day 10 post infection): 30% | Percent Survivors ([1]; pretreatment 50 mg/kg i.p., day 11 post infection): 30% | Percent Survivors ([1]; pretreatment 50 mg/kg i.p., day 12 post infection): 30% | Percent Survivors ([1]; pretreatment 50 mg/kg i.p., day 13 post infection): 30% | Percent Survivors ([1]; pretreatment 50 mg/kg i.p., day 14 post infection): 30% | Percent Survivors ([1]; pretreatment 50 mg/kg i.p., day 15 post infection): 30% | Average Survival Time ([1]; pretreatment 50 mg/kg i.p.): 7.6* Days | Percent Survivors ([1]; pretreatment 100 mg/kg i.p., day 1 post infection): 100% | Percent Survivors ([1]; pretreatment 100 mg/kg i.p., day 2 post infection): 100% | Percent Survivors ([1]; pretreatment 100 mg/kg i.p., day 3 post infection): 80% | Percent Survivors ([1]; pretreatment 100 mg/kg i.p., day 4 post infection): 50% | Percent Survivors ([1]; pretreatment 100 mg/kg i.p., day 5 post infection): 50% | Percent Survivors ([1]; pretreatment 100 mg/kg i.p., day 6 post infection): 50% | Percent Survivors ([1]; pretreatment 100 mg/kg i.p., day 7 post infection): 50% | Percent Survivors ([1]; pretreatment 100 mg/kg i.p., day 8 post infection): 50% | Percent Survivors ([1]; pretreatment 100 mg/kg i.p., day 9 post infection): 50% | Percent Survivors ([1]; pretreatment 100 mg/kg i.p., day 10 post infection): 50% | Percent Survivors ([1]; pretreatment 100 mg/kg i.p., day 11 post infection): 50% | Percent Survivors ([1]; pretreatment 100 mg/kg i.p., day 12 post infection): 50% | Percent Survivors ([1]; pretreatment 100 mg/kg i.p., day 13 post infection): 50% | Percent Survivors ([1]; pretreatment 100 mg/kg i.p., day 14 post infection): 50% | Percent Survivors ([1]; pretreatment 100 mg/kg i.p., day 15 post infection): 50% | Average Survival Time ([1]; pretreatment 100 mg/kg i.p.): 9.3* Days | protecting mice against a lethal Listeria monocytogenes EGD infection ([1]; pretreatment 5, 3, and 1 days before intravenous infection, intraperitoneally): highly effective | intrinsic in vitro antifungal activity (C. albicans A26): devoid | Average Survival Time (Candida albicans A26; [2]): 6.8 days | Percent Increase In Average Survival Time Above Untreated Controls (Candida albicans A26; [2]): 54.5* Percent | Average Survival Time (Candida albicans A26; [3]): 6.1 days | Percent Increase In Average Survival Time Above Untreated Controls (Candida albicans A26; [3]): 38.6* Percent | Average Survival Time (Candida albicans A26; Normal Mice, dose 12.5 mg/kg): 9.1 days | Percent Increase In Average Survival Time Above Untreated Controls (Candida albicans A26; Normal Mice, dose 12.5 mg/kg): 68.0* Percent | Average Survival Time (Candida albicans A26; Normal Mice, dose 50 mg/kg): 7.1 days | Percent Increase In Average Survival Time Above Untreated Controls (Candida albicans A26; Normal Mice, dose 50 mg/kg): 31.5* Percent | protecting mice from a lethal Candida albicans A26 infection (Candida albicans A26; preinfection treatments at 5, 3, and 1 days, intraperitoneally or subcutaneously): significantly effective

Source: patent EP0107907A2, “Improvements in or relating to immunomodulating agents” (ELI LILLY AND COMPANY, priority 1982, dated 1984)
